Data on 2 compounds can be found in patent publication US7282215B2, “Supports for photosensitizer formulations” (The University of British Columbia, priority 2000, dated 2007).

Marks after values point to notes of the source that are not given here.

Data set [1] in a line: Drug loading of liposomal versus 10% P123 formulations. In kind it is physicochemical. To be noted: prepared at 2 mg/ml. As to the method:
5 mg drug and lipids (40% EPG in DMPC) are combined in CH2Cl2 at a drug to lipid ratio of 1:10 w/w in 250 ml round bottom flask. The maximum concentration of drug in solvent is 2 mg/ml. CH2Cl2 is removed rapidly as described in Example 5. The resulting thin film is hydrated with 2.5 ml lactose solution (9.5% w/v) using hand swirling with glass beads at 40° C. Extrusion using Model 4T (Lipex Biomembranes Inc. B.C., Canada) is carried out with the thermostat set at 40° C. The multilamellar vesicles (MLVs) arising from hydration steps of the liposomal formulation were also examined under the microscope. MLVs are successively extruded 5 times through each of the 400 nm, 200 nm and 100 nm polycarbonate membranes (Nuclepore PC, Costar). Extruded samples were diluted 1:100 in PBS (pH 7.4) and the absorbance determined at 690 nm wavelength.
In this experiment liposomal and block copolymer (micellar) photosensitizer formulations of A- and B-ring compounds of EA6 and B3 were compared. Each of the photosensitizer samples was prepared at a final drug concentration of 2 mg/ml. The block copolymer P123, and the liposomal formulations were prepared as described in the Examples 5 and 6, respectively.

Data set [2] has as its system L1210 cells. The experiment in a line: In vitro cellular uptake of photosensitizer formulations. It is filed as cell-based. Conditions: 3 μg/ml, DMEM 10% FBS, B-B3 in P123 copolymer, BPD-MA liposomal. As to the method:
The protocol for setting up the cell cultures and conditions for the cellular assay essentially followed Richter et al. (Proc. SPIE, 2078: 293-304, September 1993). L1210 cells in DMEM and 10% FBS (single experiment, 3 sets) were incubated with the formulations at a concentration of 3 μg/ml and examined for uptake in the cells over time. Cells were recovered by centrifugation, the pellet briefly rinsed, and the cells lysed by freeze thawing in the presence of 2% Triton X-100®. An equal volume of methanol was added and fluorescence was read at 694 nm (λex 440 nm).

The test system of data set [3] is L1210 cells. Briefly: In vitro phototoxicity (MTT assay after light exposure). It is filed as cell-based. The method, then:
Exposure to drugs was carried out in the presence and absence of fetal calf serum (FCS) as a model to study transfer of drug to cells in vivo. […] A suspension of L1210 cells was prepared and exposed to various drug formulations (drug concentrations ranging from 0-50 ng/ml) either in the absence or presence of 10% fetal calf serum (FCS). One hour later, the drug was removed by pelleting the cells by centrifugation. The pellet was briefly washed with 1 ml DME and resuspended in 5% FCS/DME. 100 μl of the cell suspension was aliquoted into 6 wells of a 96 well plate, and the plate exposed to light at 10 J/cm^2. Viability was determined 24 h post exposure using the MTT assay (Mosmann, J. Immunol. Meth. 65:55-63, 1983).
(In general: Formazan colour is commonly taken as a measure of viable cells.)

Data set [4] concerns arthritis in the MRL/1pr mouse. The experiment in a line: Transcutaneous PDT of arthritis, ankle width. In kind it is in vivo. To be noted: 0.5 mg/kg i.v. As to the method: Arthritis in the MRL/1pr mouse strain was enhanced by giving 2 intradermal injections (thoracic and inguinal sites) with 0.05 ml of complete Freunds adjuvant containing 10 mg/ml heat-inactivated M. tuberculosis. PDT was given on days 0, 10 and 20 following CFA treatment. PDT was carnied out as follows; 3 groups of MRL/1pr mice were injected intravenously with B-B3 at 0.5 mg/kg (copolymer or liposomal formulations), after which they were protected from light. The third group was injected with copolymer alone at an equivalent copolymer concentration to that found in the formulation. An hour later, they were exposed to light at 80 J/cm^2 for […] (8 mW/cm^2).
Ankle width measurements were taken every 5 days prior to PDT treatment.

Data set [5] concerns M1 rhabdomyosarcoma tumor. Briefly: PDT tumor recurrence in tumor mouse model. In kind it is in vivo, DBA/2 mouse. The method, then:
Photosensitizer formulations were prepared in 10% w/v Pluronics as described in Example 4. BPD-MA was formulated in F127. B-ring compounds B-EA6 and B-B3, were prepared in P123 due to insufficient drug loading in F127. Liposomal BPD-MA formulation was Verteporfin™ and B-ring compounds were formulated in the same lipid composition. Where DMSO/plasma preparations were made, the DMSO dissolved drug was added directly to mouse plasma and the drug association with different plasma components was observed.
In these experiments the tumor model used was the DBA/2 mouse (males) inoculated intradermally with M1 rhabdomyosarcoma tumor cells (M1, ATCC. When tumors reached a diameter of 4-6 mm, the mice (n=10, unless other wise stated) were treated with photodynamic therapy (PDT). PDT involved intravenous injection of the formulated drug in 0.2 mL volume of PBS. This was followed by exposure of the tumor region to laser light (Argon pumped dye laser (5W), 690 nm, 50J/cm2) 15 min later. Animals were then monitored for tumor recurrence over a 20 day period post treatment.

The nature of data set [6]: Drug loading attainable in 10% P123 (summary). In kind it is physicochemical. The method, then: In the Example section below, formulation of the following A-ring compounds: BPD-MA, A-EA6, A-B3; B-ring compounds; B-EA6, and B-B3; and other photosensitizers such as dihydroxychlorins and pyropheophorbides, with P123 illustrate the versatility of this particular block copolymer. This includes A-ring compounds such as BPD-MA where block copolymers could be used to formulate an alternative product to a concentration as high as 4 mg/ml in 10% P123, and also A-EA6 and A-B3, all of which formulate very readily. B-ring compounds have lower drug loading characteristics, but concentrations of approximately 1.8 mg/ml are typical for B-B3, and lower for B-EA6. A wide range of other compounds e.g. pyropheophorbides and various dihydroxychlorins also formulate with ease to give final formulations at 2 mg/ml in 10% P123 in non-optimized systems. Therefore both the drug loading, and stability could be improved further by adjustments to composition, pH, and/or methodology of formulation.

Setting [7] is: Carrier Liposomal, −FCS, 1 h drug, light 10 J/cm^2, MTT 24 h.
[8] abbreviates: liposomal formulation, light 80 J/cm^2.
The mark [9] stands for this setting: Liposomal, 1.0 mg/kg i.v., 690 nm 50J/cm2 15 min later, Day 7.

`C=Cc1c(C)c2cc3nc(cc4[nH]c(cc5nc(cc1[nH]2)C1(C)C5=CC=C(C(=O)O)C1C(=O)OC)c(C)c4CCC(=O)OC)C(CCC(=O)OC)=C3C` (stereo not drawn) [B-B3]: in data set [1] (Pluronic P123 10% weight/volume), the “Drug loading, P123” value worked out at 1.24 mg/mL. Further, the “Drug loading, Liposome” value in data set [1] (liposomal formulation) is “Very low”. In the data set with L1210 cells [2], the “Incubation time to 50% uptake level” value was “close to ‘zero’ incubation time”. The “Incubation time to peak / saturation of uptake” value in the data set on L1210 cells [2] was “around 20 min”. In addition, the LD50 was 16.6* ng/ml in the data set with L1210 cells [3] (Carrier Copolymer (P123), +FCS (10%)); 0.68* ng/ml in the data set with L1210 cells [3] (Carrier Copolymer (P123), −FCS); 37.0 ng/mL in the data set with L1210 cells [3] (Carrier DMSO, +FCS (10%)); 7.2 ng/mL with L1210 cells [3] (Carrier DMSO, −FCS); 30.0 ng/mL in the data set on L1210 cells [3] (Carrier Liposomal, +FCS (10%)); 3.0 ng/mL in the data set on L1210 cells [3] (setting [7]). In addition, the “Control of inflammation (increase in ankle swelling)” value in data set [4] (copolymer formulation, light 80 J/cm^2 1 h later, PDT days 0, 10, 20) is listed as “highly effective in controlling the inflammation”. Moreover, the “Control of inflammation (ankle swelling), after day 25” value in data set [4] (setting [8]) is “exacerbation of the inflammatory condition”. In addition, the “Control of inflammation (ankle swelling), earlier part of the study” value in data set [4] (setting [8]) was “better suppression of the inflammation compared to the controls”. Further, the “Percent (%) Mice Tumor Free” value is 0^2% in data set [5] (setting [9]); 100% in data set [5] (Pluronic P123, 1.0 mg/kg, Day 7); 80% in data set [5] (Pluronic P123, 1.0 mg/kg, Day 14); 60% in data set [5] (Pluronic P123, 1.0 mg/kg, Day 20); 100^3% in data set [5] (Pluronic P123, 1.2 mg/kg, Day 7, n = 3); 67^3% in data set [5] (Pluronic P123, 1.2 mg/kg, Day 14, n = 3). Also, the “Percent (%) Mice Tumor Free” value in data set [5] (Pluronic P123, 1.2 mg/kg, Day 20, n = 3) is listed as 67^3%; in data set [5] (Pluronic P123, 1.25 mg/kg, Day 7) it was 100%; in data set [5] (Pluronic P123, 1.25 mg/kg, Day 14), 100%; in data set [5] (Pluronic P123, 1.25 mg/kg, Day 20) it was 80%. The “PDT efficacy in tumor model” value in data set [5] (plasma /DMSO preparation) is “completely ineffective”. Besides, the Formulated drug concentration entry in data set [6] was “approximately 1.8 mg/ml”.

Turning to `C=Cc1c(C)c2cc3nc(cc4[nH]c(cc5nc(cc1[nH]2)C(C)=C5CCC(=O)O)c(CCC(=O)OC)c4C)[C@@]1(C)C3=CC=C(C(=O)OC)[C@H]1C(=O)OC` [BPD-MA, benzoporphyrin derivative mono-acid-ring A, reference compound], in the data set on L1210 cells [2], the “Incubation time to 50% uptake level” value is “approximately 5 min”. Also, the “Incubation time to peak / saturation of uptake” value with L1210 cells [2] is listed as 30 min. Moreover, the LD50 in the data set with L1210 cells [3] (Carrier Liposomal, +FCS (10%)) stood at 38.0 ng/mL; in the data set with L1210 cells [3] (setting [7]), 4.0 ng/mL. Moreover, the “Percent (%) Mice Tumor Free” value was found to be 100% in data set [5] (setting [9]); 100% in data set [5] (Liposomal, 1.0 mg/kg, Day 14); 30% in data set [5] (Liposomal, 1.0 mg/kg, Day 20); 100% in data set [5] (Pluronic F127, 1.0 mg/kg, Day 7); 60% in data set [5] (Pluronic F127, 1.0 mg/kg, Day 14); 60% in data set [5] (Pluronic F127, 1.0 mg/kg, Day 20). In data set [6], this compound came in with a Formulated drug concentration of no more than 4 mg/mL.
